Reference: ChEMBL document CHEMBL1149003, “Studies on cytotoxic constituents in pericarps of Mallotus japonicus, Part II” (J Nat Prod, 1986)
Values after ≈ are worked out from the molar mass of the structure shown.

Key:
L5178Y = test: Cytotoxicity against mouse L5178Y cells; assay type: functional; conditions: read-out: ED50 (the source's name)
KB = test: Cytotoxicity against human KB cells; assay type: functional; conditions: read-out: ED50 (the source's name)
[1] = Antitumor activity against mouse solid EAC cells xenografted in ddY mouse assessed as tumor weight at 7 mg/kg, ip qd for 3 to 8 days measured after 10 days; assay type: functional, Ehrlich; conditions: route intraperitoneal
[2] = Antitumor activity against mouse solid EAC cells xenografted in ddY mouse at 20 mg/kg, ip qd for 3 to 8 days measured after 10 days relative to control; assay type: functional, Ehrlich; conditions: route intraperitoneal
Mus musculus [3] = test: Toxicity in ddY mouse xenografted with mouse solid Ehrlich carcinoma cells assessed as mortality at 7 mg/kg, ip qd for 3 to 8 days measured after 10 days; assay type: organism-based; design: dose 7 mg/kg, route intraperitoneal; conditions: in vivo, 240 h
[4] = Antitumor activity against mouse EAC cells xenografted in ddY mouse assessed as median survival time at 20 mg/kg, ip qd for 2 to 8 days; assay type: functional, Ehrlich; conditions: route intraperitoneal
[5] = Antitumor activity against mouse solid EAC cells xenografted in ddY mouse assessed as tumor weight at 20 mg/kg, ip qd for 3 to 8 days measured after 10 days; assay type: functional, Ehrlich; conditions: route intraperitoneal
[6] = Antitumor activity against mouse EAC cells xenografted in ddY mouse assessed as median survival time at 7 mg/kg, ip qd for 2 to 8 days; assay type: functional, Ehrlich; conditions: route intraperitoneal
Mus musculus [7] = test: Toxicity in ddY mouse xenografted with mouse solid Ehrlich carcinoma cells assessed as mortality at 20 mg/kg, ip qd for 3 to 8 days measured after 10 days; assay type: organism-based; design: dose 20 mg/kg, route intraperitoneal; conditions: in vivo, 240 h
[8] = Antitumor activity against mouse solid EAC cells xenografted in ddY mouse at 7 mg/kg, ip qd for 3 to 8 days measured after 10 days relative to control; assay type: functional, Ehrlich; conditions: route intraperitoneal

SMILES | EC50 (L5178Y) | EC50 (KB) | Activity [1] | T/C [2] | Activity (Mus musculus [3]) | MST [4] | Activity [5] | MST [6] | Activity (Mus musculus [7]) | T/C [8]
C=C(C)C(O)Cc1c(O)c(Cc2c(O)c(C(C)=O)c(O)c(C)c2OC)c(O)c(C(C)=O)c1O (racemic) | 2.45 µg/mL (≈ 5.32 µM) | 1.22 µg/mL (≈ 2.65 µM) | – | – | – | – | – | – | – | –
COc1c(C)c(O)c(C(C)=O)c(O)c1Cc1c(O)c2c(c(C(C)=O)c1O)OC(C)(C)C(O)C2 (racemic) [MALLOTOCHROMANOL] | > 100 µg/mL | > 100 µg/mL | – | – | – | – | – | – | – | –
C=C(C)C(O)Cc1c(O)c(Cc2c(O)c(C(C)=O)c(O)c(C)c2OC)c(O)c(C(=O)CCC)c1O (racemic) [MALLOTOLERIN] | 0.82 µg/mL (≈ 1.68 µM) | 0.95 µg/mL (≈ 1.94 µM) | – | – | – | – | – | – | – | –
COc1c(C)c(O)c(C(C)=O)c(O)c1Cc1c(O)c2c(c(C(C)=O)c1O)OC(C)(C)C=C2 [MALLOTOCHROMENE] | 1.25 µg/mL (≈ 2.83 µM) | 2.1 µg/mL (≈ 4.75 µM) | – | – | – | – | – | – | – | –
COc1c(C)c(O)c(C(C)=O)c(O)c1Cc1c(O)c(CC=C(C)C)c(O)c(C(C)=O)c1O [MALLOTOJAPONIN] | 0.74 µg/mL (≈ 1.66 µM) | 0.58 µg/mL (≈ 1.3 µM) | 0.93 g | 49.5% | Non-toxic | 14 days | 0.59 g | 20 days | Non-toxic | 78.1%
